Source: patent US9545409B2 (priority 2012, dated 2017)

Legend:
NMDA-receptors = assay: blocking/unblocking of NMDA-receptors; settings: stated property, no test described
[1] = tested on: ischemia-reperfusion eye model
central eye artery = assay: blood circulation in the central eye artery under model ischemia-reperfusion; assay type: in vivo; settings: rats, intravenous, doses of 3, 5, 10, 20 and 100 mg/kg
[2] = rats, parenteral, within 96 hours of ischemia, doses of 3, 5, 10, 20 and 100 mg/kg

`OC(COCCC12CC3CC(CC(C3)C1)C2)CN1CCOCC1` (stereo not shown) [1-adamantylethyloxy-3-morpholino-2-propanol] was tested, and the “blocking/unblocking NMDA-receptors” value (NMDA-receptors) was “fast blocking/unblocking”, the “disturbed indicators of acid-alkali balance, oxidative stress and energy metabolism in the retina” value [1, 2] was “promoted the normalization” and the “number of apoptotic and necrotic cells in eye posterior part” value [1, 2] was “reduces”. The “perivascular edema in the retina and optic nerve” value [1, 2] was “attenuated”, the “retinal manifestations of endothelial dysfunction and nitrosating stress” value [1, 2] was “promoted the reduction” and the “neuroprotective properties under ischemic-hypoxic injury of retina and optic nerve” value ([1]; summary of the studies, composition concentration range 3-100 mg/ml) was “expressed neuroprotective properties”. The “blood circulation in the central eye artery” value (central eye artery) was “stimulates”.
